Literature values as cited in US20190008906A1, “COMPOSITIONS FOR MANAGEMENT OF WOUNDS, SKIN DISEASES, DEHYDRATION, CHRONIC DISEASES, AND RESPIRATORY DISEASES” (priority 2017, published 2019).

Conditions: laboratory animals, mainly when given orally

Compound: CC1=CC(=O)C(C(C)C)=CC1=O [thymoquinone]
- safety in toxicity studies: quite safe
